Assay results taken from patent US8138188B2, “Melanocortin type 4 receptor agonist piperidinoylpyrrolidines” (Pfizer Inc., priority 2006, dated 2012).

Molecular target: T1, MC4 receptor (MC4R) (Homo sapiens, UniProt P32245)
T1 construct: expressed in transfected cells; host or cells: CHO-CRE MC4R cells (membranes)
Assay: Nle4, D-Phe7-α-MSH inhibition at the MC4 receptor (SPA competition binding vs [125I] Nle4, D-Phe7-α-MSH)
Details: vs 0.06 nM [125I] Nle4, D-Phe7-α-MSH, CHO-CRE MC4R cell membranes
From the text: Nle4, D-Phe7-α-MSH Inhibition at the MC4 Receptor
Nle4, Nle4, D-Phe7-α-MSH is a stable analogue of melanocyte-stimulating hormone (MSH), which is an agonist at the MC4 receptor (MC4R). Compounds can be evaluated for their ability to inhibit Nle4, Nle4, D-Phe7-α-MSH binding to membranes from cells expressing the MC4R using a competition binding assay versus [^125I] Nle4, D-Phe7-α-MSH.
Cells expressing the MC4R were subject to homogenisation and the membrane fragment isolated by differential centrifugation. CHO-CRE MC4R cell membranes were coupled to PVT-PEI-WGA SPA Beads type A for 2 hours, spun at 1000 RPM for 5 mins and suspended to a concentration of 300 ug bead/ml (0.15 ug membrane, 15 ug bead per well). Bead/membrane mix was incubated with 0.06 nM [^125I] Nle4, D-Phe7-α-MSH and 11 half-log concentrations of competitor ligand, in duplicate, in a total volume of 50 μl buffer per well (25 mM HEPES, 1 mM MgCl2, 2.5 mM CaCl2, 1% Pluronic F68, 1 complete EDTA protease inhibitor tablet/50 ml pH7). Non-specific binding was determined by the inclusion of 100 nM SHU9119. The reaction was initiated by the addition of bead/membranes and plates were incubated at room temperature for 12 hours (the first hour on a plate shaker), after which the amount of radioactivity present was determined using a Wallac plate counter. Ki values were determined by data analysis using appropriate software.

T1 sequence (P32245 whole entry): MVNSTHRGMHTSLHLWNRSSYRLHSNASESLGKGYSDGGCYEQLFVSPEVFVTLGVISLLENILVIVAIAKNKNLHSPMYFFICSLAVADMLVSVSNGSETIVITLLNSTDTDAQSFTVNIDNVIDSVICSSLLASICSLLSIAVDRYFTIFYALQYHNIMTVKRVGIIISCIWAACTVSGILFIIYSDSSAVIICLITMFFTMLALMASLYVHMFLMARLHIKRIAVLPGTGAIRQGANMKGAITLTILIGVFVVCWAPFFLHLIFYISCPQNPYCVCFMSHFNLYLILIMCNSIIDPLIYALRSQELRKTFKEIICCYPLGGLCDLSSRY

Row | Ki | Structure (SMILES)
1 | 0.027 µM | C[C@@H]1CN(C(=O)[C@@H]2CN(c3ccc(C#N)nn3)C[C@H]2c2ccc(Cl)cn2)C[C@H](C)[C@@]1(O)c1ccc(F)cc1 [Example 2, 6-[(3S,4S)-3-(5-Chloropyridin-2-yl)-4-{[(3R,4R,5S)-4-(4-fluorophenyl)-4-hydroxy-3,5-dimethylpiperidin-1-yl]carbonyl}pyrrolidin-1-yl]pyridazine-3-carbonitrile]

Test system: not listed separately
Assay: In vitro metabolism rate determination, rat liver microsome (RLM) assay
Type: in vitro ADME
Details: rat liver microsomes, substrate 1 μM; read-out: RLM (intrinsic clearance)
From the text: In vitro Metabolism Rate Determination (Human Liver Microsome (HLM); Rat Liver Microsome (RLM) Assay)
Many drugs are metabolised by the cytochrome P450 mono-oxygenase system. This enzyme is found in high concentrations in the liver and is bound to the endoplasmic reticulum of the hepatocyte. The enzyme system can be obtained in semi-purified state by the preparation of the hepatic microsomal fractions. Determining a compound's in vitro half-life in such a system provides a useful indicator of metabolic stability.
Methodology For In Vitro Rate Determination Using Hepatic & Supermix Microsomes
The method outlined below is for a total incubation volume of 1.5 ml.
1. The following mixture is prepared in a test tube:
2. Defrost microsomes at room temperature and add sufficient microsomes to give a final concentration of 0.5 nmol cytochrome P450/ml of incubation e.g. for a 1.5 ml incubation, the volume of microsomes to be added is:
[formula] 3. Add sufficient MilliQ water to give a total incubation volume of 1.425 ml. 4. Remove 237.5 μl of incubation mix and place in test tube for PNA positive control. Add 2.5 μl of PNA solution, whirlimix, and put tube into a rack in the thermostatically controlled shaking water bath 5. Remove 100 μl for no substrate control and dispense in test tube. Place test tube in a rack in the thermostatically controlled shaking water bath. 6. Add substrate to the incubation. The substrate should be at an initial concentration of 1 μM. The volume of substrate required in the remaining 1.162.5 ml incubation is calculated as follows:
[formula] • N.B. The volume of organic solvent added should not exceed 0.1% of the total incubation volume. 7. Remove 100 μl of incubation mix into test tube for no cofactor control. Whirlimix and put into a rack in the thermostatically controlled shaking water bath. 8. Pre-incubate the tube containing the incubation mix, also positive control and no cofactor tubes in the thermostatically controlled shaking water bath set at 37° C. for approx 5 min. 9. Add NADP to initiate reaction (75 μl to each 1.162.5 ml incubation mix, 12.5 μl to positive control tube and 5 μl to no substrate tube) and take first time point immediately. The PNA positive control, no cofactor control and no substrate tubes are incubated for the total incubation time. 10. Remove 100 μl aliquots up to 9 different sampling points from 0 to 60 min (usually 0, 3, 5, 10, 15, 20, 30, 45 & 60 min) and terminate reaction. Longer incubation times can be used, but, after 120 min the microsomes deteriorate. The reaction may be terminated by addition of organic solvent, acid or base. At the end of the incubation process the no cofactor and no substrate controls in a similar manner i.e. terminate with the same reagent. 11. PNA Positive Control Procedure: • After the final sample has been taken, remove the positive control and add 1 ml 20% TCA to this tube. Also prepare a tube containing 250 μl of a PNP standard at 50 μM, and add 1 ml 20% TCA. Whirlimix both tubes and leave for approx 5 min to allow the protein to precipitate. • Centrifuge both tubes for approx 5 min in an instrument set at 3500 rpm. Remove 1 ml of supernatant and place into clean test tubes, discard the remainder. • Add 1 ml 10M NaOH to the supernatant, whirlimix, and leave to stand for approx min. Blank spectrophotometer with distilled water at 400 nm then measure absorbance of the PNP standard against distilled water. The microsomal 4-nitroanisole O-demethylase activity is calculated as follows: Calculation of Results
[formula] • The activity value from the incubation MUST be equal to or greater than 85% of the mean value of the batch used for the incubation to be valid. If this criteria is not met, then the incubation must be repeated. 11. Analyse samples (including no cofactor and no substrate control) by a specific assay for the substrate to determine the disappearance kinetics. Analysis Of Data […]

Row | Structure (SMILES) | microsomal CLint at 1 μM
2 | C[C@@H]1CN(C(=O)[C@@H]2CN(c3ccc(C#N)cn3)C[C@H]2c2ccc(Cl)cn2)C[C@H](C)[C@@]1(O)c1ccc(F)cc1 [Example 1, 6-[(3S,4S)-3-(5-Chloropyridin-2-yl)-4-{[(3R,4R,5S)-4-(4-fluorophenyl)-4-hydroxy-3,5-dimethylpiperidin-1-yl]carbonyl}pyrrolidin-1-yl]nicotinonitrile] | < 8.5 µL/min/mg
3 | C[C@@H]1CN(C(=O)[C@@H]2CN(c3ccc(=O)n(C)n3)C[C@H]2c2ccc(F)cn2)C[C@H](C)[C@@]1(O)c1ccc(Cl)cc1 [Example 7, 6-[(3S,4S)-3-{[(3R,4R,5S)-4-(4-chlorophenyl)-4-hydroxy-3,5-dimethylpiperidin-1-yl]carbonyl}-4-(5-fluoropyridin-2-yl)pyrrolidin-1-yl]-2-methylpyridazin-3(2H)-one] | 11 µL/min/mg
4 | C[C@@H]1CN(C(=O)[C@@H]2CN(c3cccnn3)C[C@H]2c2ccc(Cl)cn2)C[C@H](C)[C@@]1(O)c1ccccn1 [Example 9, (3R,4R,5S)-1-{[(3S,4S)-4-(5-chloropyridin-2-yl)-1-pyridazin-3-ylpyrrolidin-3-yl]carbonyl}-3,5-dimethyl-4-pyridin-2-ylpiperidin-4-ol] | 411 µL/min/mg
5 | COc1ccc(C2CN(c3ccc(C#N)nn3)CC2C(=O)N2CC(C)C(O)(c3ccc(F)cc3)C(C)C2)cn1 (stereo not shown) [Example 16] | < 8.5 µL/min/mg
6 | CC1CN(C(=O)C2CN(c3ccc(=O)n(C)n3)CC2c2ccc(Cl)cn2)CC(C)C1(O)c1ccccc1 (stereo not shown) [Example 21] | 58.5 µL/min/mg
7 | C[C@@H]1CN(C(=O)[C@@H]2CN(c3ccc(=O)n(C)n3)C[C@H]2c2ccc(Cl)cn2)C[C@H](C)[C@@]1(O)c1ccccn1 [Example 22] | 96 µL/min/mg
8 | COc1ccc(N2CC(C(=O)N3CC(C)C(O)(C4CC4)C(C)C3)C(c3ccc(Cl)cn3)C2)nn1 (stereo not shown) [Example 26] | > 510 µL/min/mg
9 | C[C@@H]1CN(C(=O)[C@@H]2CN(c3ccc(Cl)nn3)C[C@H]2c2ccc(Cl)cn2)C[C@H](C)[C@@]1(O)c1ccccn1 [Example 31] | 292 µL/min/mg
10 | CC1CN(C(=O)C2CN(c3ccc(C#N)nn3)CC2c2ccc(F)cn2)CC(C)C1(O)c1ccccc1 (stereo not shown) [Example 33] | 72 µL/min/mg
11 | CC1CN(C(=O)C2CN(c3ccc(=O)[nH]n3)CC2c2ccc(F)cn2)CC(C)C1(O)c1ccccc1 (stereo not shown) [Example 37] | 23 µL/min/mg
12 | CC1CN(C(=O)C2CN(c3ccc(=O)n(C)n3)CC2c2ccc(F)cn2)CC(C)C1(O)c1ccc(F)cc1 (stereo not shown) [Example 40] | < 8.5 µL/min/mg
13 | COc1ccc([C@@H]2CN(c3ccc(=O)[nH]n3)C[C@H]2C(=O)N2C[C@@H](C)[C@](O)(c3ccc(Cl)cn3)[C@@H](C)C2)nc1 [Example 41] | 30 µL/min/mg
14 | COc1ccc(C2CN(c3ccc(=O)[nH]n3)CC2C(=O)N2CC(C)C(O)(c3ccc(F)cc3)C(C)C2)nc1 (stereo not shown) [Example 42] | 25 µL/min/mg
15 | CC1CN(C(=O)C2CN(c3ccc(C#N)cn3)CC2c2ccc(C#N)cn2)CC(C)C1(O)c1ccc(F)cc1 (stereo not shown) [Example 45] | < 8.5 µL/min/mg

Next, values leading:

Row | microsomal CLint at 1 μM | Structure (SMILES)
16 | 31 µL/min/mg | C[C@@H]1CN(C(=O)[C@@H]2CN(c3ccc(C#N)nn3)C[C@H]2c2ccc(Cl)cn2)C[C@H](C)[C@@]1(O)c1ccc(F)cc1 [Example 2, 6-[(3S,4S)-3-(5-Chloropyridin-2-yl)-4-{[(3R,4R,5S)-4-(4-fluorophenyl)-4-hydroxy-3,5-dimethylpiperidin-1-yl]carbonyl}pyrrolidin-1-yl]pyridazine-3-carbonitrile]
17 | 74 µL/min/mg | COc1ccc(N2C[C@@H](C(=O)N3C[C@@H](C)[C@](O)(c4ccc(F)cc4)[C@@H](C)C3)[C@H](c3ccc(Cl)cn3)C2)nn1 [Example 4, (3R,4R,5S)-1-{[(3S,4S)-4-(5-chloropyridin-2-yl)-1-(6-methoxypyridazin-3-yl)pyrrolidin-3-yl]carbonyl}-4-(4-fluorophenyl)-3,5-dimethylpiperidin-4-ol]
18 | 27 µL/min/mg | C[C@@H]1CN(C(=O)[C@@H]2CN(c3ccc(Cl)nn3)C[C@H]2c2ccc(F)cn2)C[C@H](C)[C@@]1(O)c1ccc(Cl)cc1 [Example 5, (3R,4R,5S)-4-(4-chlorophenyl)-1-{[(3S,4S)-1-(6-chloropyridazin-3-yl)-4-(5-fluoropyridin-2-yl)pyrrolidin-3-yl]carbonyl}-3,5-dimethylpiperidin-4-ol]
19 | < 8.5 µL/min/mg | C[C@@H]1CN(C(=O)[C@@H]2CN(c3ccc(=O)[nH]n3)C[C@H]2c2ccc(F)cn2)C[C@H](C)[C@@]1(O)c1ccc(Cl)cc1 [Example 6, 6-[(3S,4S)-3-{[(3R,4R,5S)-4-(4-chlorophenyl)-4-hydroxy-3,5-dimethylpiperidin-1-yl]carbonyl}-4-(5-fluoropyridin-2-yl)pyrrolidin-1-yl]pyridazin-3(2H)-one]
20 | > 510 µL/min/mg | C[C@@H]1CN(C(=O)[C@@H]2CN(c3cncc(F)c3)C[C@H]2c2ccc(Cl)cn2)C[C@H](C)[C@@]1(O)c1ccccn1 [Example 8, (3R,4R,5S)-1-{[(3S,4S)-4-(5-chloropyridin-2-yl)-1-(5-fluoropyridin-3-yl)pyrrolidin-3-yl]carbonyl}-3,5-dimethyl-4-pyridin-2-ylpiperidin-4-ol]
21 | 68 µL/min/mg | C[C@@H]1CN(C(=O)[C@@H]2CN(c3ccc(=O)n(C)n3)C[C@H]2c2ccc(Cl)cn2)C[C@H](C)[C@@]1(O)C1CC1 [Example 18]
22 | > 510 µL/min/mg | CC1CN(C(=O)C2CN(c3cncc(F)c3)CC2c2ccc(Cl)cn2)CC(C)C1(O)C1CC1 (stereo not shown) [Example 24]
23 | 31 µL/min/mg | CC1CN(C(=O)C2CN(c3ccc(=O)[nH]n3)CC2c2ccc(Cl)cn2)CC(C)C1(O)c1ccccc1 (stereo not shown) [Example 27]
24 | 51 µL/min/mg | C[C@@H]1CN(C(=O)[C@@H]2CN(c3ccc(=O)[nH]n3)C[C@H]2c2ccc(Cl)cn2)C[C@H](C)[C@@]1(O)c1ccccn1 [Example 28]
25 | 69.5 µL/min/mg | CC1CN(C(=O)C2CN(c3ccc(C#N)nn3)CC2c2ccc(Cl)cn2)CC(C)C1(O)c1ccccn1 (stereo not shown) [Example 30]
26 | 92 µL/min/mg | C[C@@H]1CN(C(=O)[C@@H]2CN(c3ccc(Cl)nn3)C[C@H]2c2ccc(F)cn2)C[C@H](C)[C@@]1(O)c1ccccc1 [Example 35]
27 | 58 µL/min/mg | CC1CN(C(=O)C2CN(c3ccc(=O)n(C)n3)CC2c2ccc(F)cn2)CC(C)C1(O)c1ccccc1 (stereo not shown) [Example 39]
28 | < 8.5 µL/min/mg | C[C@@H]1CN(C(=O)[C@@H]2CN(c3ccc(C#N)nn3)C[C@H]2c2ccc(C#N)cn2)C[C@H](C)[C@@]1(O)c1ccc(F)cc1 [Example 46]
